The values below come from patent US10287530B2, “Surfactants based on monounsaturated fatty alcohol derivatives” (priority 2013, dated 2019).

Data set [1] is described as follows: Interfacial tension (IFT) against light mineral oil, synergy study with cationic surfactant. In kind it is physicochemical. Conditions: for IFT at 0.1% actives/mineral oil (blend): 1:1 molar blend of the anionic with Ammonyx Cetac 30, 0.1% actives, light mineral oil; for Calculated IFT (no synergy): expected IFT of the 1:1 molar blend with Ammonyx Cetac 30 by ideal mixing; for Synergy?: measured versus expected IFT of the 1:1 molar blend with Ammonyx Cetac 30; for IFT at 0.1% actives (single component): 0.1 wt. % active against light mineral oil, ambient temperature. The method, then: (§1) The surfactant blends tested are prepared at a 1:1 molar ratio without any pH adjustment. Dilutions are made using deionized water to the desired actives level. Actives amounts are wt. % unless indicated otherwise. Appearances are reported at ambient temperature for samples prepared within the last 24 h.
Interfacial tension (IFT) of all the individual components and their blends is measured at 0.1 wt. % active against light mineral oil at ambient temperature using a Kruss DSA-20 pendent drop tensiometer. The drop is blown out at 600 μL/min., and a video is recorded for 100 s. The video frames taken during the last 15 s are analyzed and used for the IFT calculation.
For blends having an IFT less than 0.5 mN/m, the IFT is determined using a spinning drop tensiometer (University of Texas 500) at 25° C. Oil density=0.877 g/cm^3 and surfactant density=0.997 g/cm^3 are used for the IFT calculation.
The expected IFT for a blend is calculated based on ideal mixing (non-synergistic) using the active component in each blend. The equation used is given as: Expected IFT=X*IFTa+(1−X)*IFTb where X is the actives % of component A, IFTa is the IFT of component A, and IFTb is the IFT of component B. If the measured IFT for a blend is less than the expected IFT, then the blend is synergistic. If the measured IFT for a blend is higher than the expected IFT, the system is antagonistic.

Data set [2] in a line: Appearance and solubility of surfactants and of 1:1 molar blends with cationic surfactant. In kind it is physicochemical. Conditions: for Appearance, 1.0%: 1:1 molar blend of the anionic with Ammonyx Cetac 30, 1.0% actives. The method, then: as §1

In the case of “1-Undecanol, 1EO Ether Sulfate, Sodium Salt [Sat. C11 alcohol 1EO Na sulfate]”, in data set [1], the “IFT at 0.1% actives/mineral oil (blend)” value was 0.23 mN/m, the “Calculated IFT (no synergy)” value is recorded as 6.44 mN/m, the “Synergy?” value is “very high” and the “IFT at 0.1% actives (single component)” value is reported as 12.52 mN/m. For the same substance, in data set [2], the Solubility result is given as “fair-poor”. Further, the “Appearance, 0.1%” value in data set [2] (1:1 molar blend of the anionic with Ammonyx Cetac 30, 0.1% actives, ambient temperature) is given as “hazy liquid”. In addition, the “Appearance, 1.0%” value in data set [2] (ambient temperature) is listed as “separated”.

On to “Undecylenic Alcohol, 1EO Ether Sulfate, Sodium Salt [Unsat. C11 alcohol 1EO Na sulfate]”, for which, in data set [1], the “IFT at 0.1% actives/mineral oil (blend)” value worked out at 0.13 mN/m, the “Calculated IFT (no synergy)” value is reported as 3.27 mN/m, the “Synergy?” value was “very high” and the “IFT at 0.1% actives (single component)” value is on record as 6.18 mN/m. The Solubility result in data set [2] was “good”. In data set [2] (ambient temperature), the “Appearance, 1.0%” value was “separated”.
